In data set [1] the test system is GABAA, Chloride Channel, TBOB. Nature of the data set: Off-target 226810. It counts as binding, Rat. As to conditions: 10 µM. On the procedure:
(§1) The potential off-target activity of 10 µM (OEG2)2-IP4 was assessed against a panel of 87 enzymes, receptors, or ion channels that are used in standard safety pharmacology screens.
(§2) 3.2. Off-target screening assay
(§3) The experiments were conducted by a contract research organization (Eurofins Panlabs Discovery
(§4) Services Taiwan, Ltd.) and details on the respective assays can be retrieved via the catalog number
(§5) provided in Supplementary Table 11 from the company’s webpage
(§6) (https://www.eurofinsdiscoveryservices.com/). […]

A further data set addresses T1, Histamine H1 (Homo sapiens, UniProt P35367).
T1 construct: purchased Eurofins Panlabs Discovery Services Taiwan, Ltd
Kind of data set: Off-target 239610. It counts as binding. On the procedure:
as §1, §2
(§7) The experiments were conducted by a contract research organization (Eurofins Panlabs Discovery Services Taiwan, Ltd.) and details on the respective assays can be retrieved via the catalog number provided in Supplementary Table 11 from the company’s webpage
as §6
(§8) At sacrifice the left tibia of animals of the rat model with dietary adenine/high-phosphate-induced uremia and VC was collected, fixed with 70% v/v EtOH and embedded in methyl methacrylate. The trabecular bone compartment is known to be the most metabolic active i.e. actively re-structured bone compartment in CKD. Therefore, histomorphometric and micro-computed tomography (µCT) analysis of bone was performed on the trabecular compartment. Tibial sections were Goldner-stained for histomorphometric analysis of the proximal metaphysis using the AxioVision Release 4.5 software, as […]
(§9) described previously5. […]

In the next data set the target is T2, hERG potassium channel (Homo sapiens, UniProt Q12809).
T2 construct: purchased Eurofins Panlabs Discovery Services Taiwan, Ltd
T2 sequence (Q12809 whole entry): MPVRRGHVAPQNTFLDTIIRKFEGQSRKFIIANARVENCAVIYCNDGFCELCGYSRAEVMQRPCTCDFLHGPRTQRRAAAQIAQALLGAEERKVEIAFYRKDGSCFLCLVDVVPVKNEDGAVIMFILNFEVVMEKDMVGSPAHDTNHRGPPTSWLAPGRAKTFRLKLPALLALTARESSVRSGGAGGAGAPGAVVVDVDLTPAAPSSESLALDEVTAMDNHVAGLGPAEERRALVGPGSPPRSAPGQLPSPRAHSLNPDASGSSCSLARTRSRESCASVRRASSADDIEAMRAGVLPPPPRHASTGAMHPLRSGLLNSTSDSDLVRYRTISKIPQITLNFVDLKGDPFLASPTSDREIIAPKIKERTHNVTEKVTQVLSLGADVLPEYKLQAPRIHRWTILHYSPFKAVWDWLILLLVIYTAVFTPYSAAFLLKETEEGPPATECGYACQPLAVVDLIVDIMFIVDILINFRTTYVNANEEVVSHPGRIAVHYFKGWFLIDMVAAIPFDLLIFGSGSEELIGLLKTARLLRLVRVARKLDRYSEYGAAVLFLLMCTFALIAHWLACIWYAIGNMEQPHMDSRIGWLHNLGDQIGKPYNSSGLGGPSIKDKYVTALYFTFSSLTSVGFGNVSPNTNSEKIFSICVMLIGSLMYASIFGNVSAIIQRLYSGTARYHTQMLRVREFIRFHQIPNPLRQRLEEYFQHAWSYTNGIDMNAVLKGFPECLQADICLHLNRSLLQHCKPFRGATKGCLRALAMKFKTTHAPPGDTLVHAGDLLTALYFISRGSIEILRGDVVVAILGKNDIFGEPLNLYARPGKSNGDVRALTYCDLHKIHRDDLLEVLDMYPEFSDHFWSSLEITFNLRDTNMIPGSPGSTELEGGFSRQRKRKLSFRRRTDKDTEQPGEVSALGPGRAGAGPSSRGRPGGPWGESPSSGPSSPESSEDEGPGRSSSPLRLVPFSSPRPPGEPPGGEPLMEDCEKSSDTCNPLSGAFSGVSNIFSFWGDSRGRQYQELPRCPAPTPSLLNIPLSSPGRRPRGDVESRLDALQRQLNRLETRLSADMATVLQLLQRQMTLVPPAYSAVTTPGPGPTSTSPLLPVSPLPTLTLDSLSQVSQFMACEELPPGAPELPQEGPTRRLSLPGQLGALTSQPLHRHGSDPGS
Kind of data set: Off-target 265900. It counts as binding. The procedure: as §1, §2, §7, §6, §8, §9

In a further data set the target is T3, Chemokine CXCR2 (IL-8RB) (Homo sapiens, UniProt P25025).
T3 construct: purchased Eurofins Panlabs Discovery Services Taiwan, Ltd
T3 sequence (P25025 whole entry): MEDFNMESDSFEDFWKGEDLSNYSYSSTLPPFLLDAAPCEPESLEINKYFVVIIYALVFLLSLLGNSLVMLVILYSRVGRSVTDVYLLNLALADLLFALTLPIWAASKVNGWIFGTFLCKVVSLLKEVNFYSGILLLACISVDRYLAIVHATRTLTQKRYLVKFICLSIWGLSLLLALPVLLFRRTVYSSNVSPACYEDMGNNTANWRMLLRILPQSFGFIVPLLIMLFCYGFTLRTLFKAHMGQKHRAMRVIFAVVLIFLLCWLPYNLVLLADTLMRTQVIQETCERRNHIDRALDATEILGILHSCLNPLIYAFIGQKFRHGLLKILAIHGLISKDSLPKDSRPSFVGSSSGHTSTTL
Kind of data set: Off-target 244500. Type of data set: binding. The procedure: as §1, §2, §7, §6, §8, §9

The target in data set [2] is T4, Transporter, Serotonin (5-Hydroxytryptamine) (SERT) (Homo sapiens, UniProt P31645).
T4 construct: purchased Eurofins Panlabs Discovery Services Taiwan, Ltd
Nature of the data set: Off-target 274030. It counts as binding. On the procedure: as §1, §2, §3, §4, §5, §6

The target in data set [3] is T5, Peptidase, Angiotensin Converting Enzyme (Oryctolagus cuniculus, UniProt P12822).
T5 construct: purchased Eurofins Panlabs Discovery Services Taiwan, Ltd
T5 sequence (P12822 34-1310): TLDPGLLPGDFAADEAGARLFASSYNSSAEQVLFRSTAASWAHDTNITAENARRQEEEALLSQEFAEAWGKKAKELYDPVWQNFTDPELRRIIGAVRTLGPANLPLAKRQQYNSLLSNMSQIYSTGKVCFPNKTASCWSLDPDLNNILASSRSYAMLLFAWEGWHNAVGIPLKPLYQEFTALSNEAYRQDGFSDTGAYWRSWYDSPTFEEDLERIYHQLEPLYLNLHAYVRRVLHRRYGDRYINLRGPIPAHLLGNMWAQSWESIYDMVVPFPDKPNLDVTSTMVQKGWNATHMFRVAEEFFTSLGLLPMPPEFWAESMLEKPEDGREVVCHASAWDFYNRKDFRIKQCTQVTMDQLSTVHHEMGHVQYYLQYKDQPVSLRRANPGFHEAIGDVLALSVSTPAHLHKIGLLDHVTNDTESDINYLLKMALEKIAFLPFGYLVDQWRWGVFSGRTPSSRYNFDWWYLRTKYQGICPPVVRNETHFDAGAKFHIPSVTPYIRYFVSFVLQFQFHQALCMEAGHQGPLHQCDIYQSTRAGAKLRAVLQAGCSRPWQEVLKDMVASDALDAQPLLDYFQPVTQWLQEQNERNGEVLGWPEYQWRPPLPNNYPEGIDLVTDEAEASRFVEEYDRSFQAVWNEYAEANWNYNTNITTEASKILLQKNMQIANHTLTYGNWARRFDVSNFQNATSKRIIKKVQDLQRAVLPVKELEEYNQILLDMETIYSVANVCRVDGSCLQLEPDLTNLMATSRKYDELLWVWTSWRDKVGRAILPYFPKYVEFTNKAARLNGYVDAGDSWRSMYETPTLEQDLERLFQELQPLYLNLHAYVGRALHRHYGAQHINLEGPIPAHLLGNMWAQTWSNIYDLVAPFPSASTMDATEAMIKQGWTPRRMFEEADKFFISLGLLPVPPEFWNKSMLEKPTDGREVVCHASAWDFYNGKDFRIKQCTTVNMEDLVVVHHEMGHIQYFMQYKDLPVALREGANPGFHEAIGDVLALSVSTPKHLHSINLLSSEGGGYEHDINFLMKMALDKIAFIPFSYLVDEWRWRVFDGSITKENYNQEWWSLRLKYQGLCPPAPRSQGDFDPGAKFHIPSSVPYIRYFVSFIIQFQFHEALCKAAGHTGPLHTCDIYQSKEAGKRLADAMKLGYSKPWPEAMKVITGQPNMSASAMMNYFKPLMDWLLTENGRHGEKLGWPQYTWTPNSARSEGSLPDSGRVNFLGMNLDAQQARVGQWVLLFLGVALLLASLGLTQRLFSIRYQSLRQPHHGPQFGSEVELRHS
Nature of the data set: Off-target 107300. It counts as biochemical, Rabbit. On the procedure:
as §1, §2, §3, §4, §5, §6

A further data set has as its target T6, Dopamine D1 (Homo sapiens, UniProt P21728).
T6 construct: purchased Eurofins Panlabs Discovery Services Taiwan, Ltd
Kind of data set: Off-target 219500 (D1). It counts as binding. The procedure:
as §1, §2, §3, §4, §5, §6

Another data set deals with Transporter, Adenosine. Kind of data set: Off-target 202000. Type of data set: binding, Guinea pig. As to conditions: 10 µM. The procedure: as §1, §2, §3, §4, §5, §6
The subject of data set [4] is Calcium Channel L-Type, Dihydropyridine. Nature of the data set: Off-target 214600. Type of data set: binding, Rat. The conditions noted are these: 10 µM. The procedure:
as §1, §2, §3, §4, §5, §6

Data set [5] is described as follows: VSMC viability (MTS), compounds only. As to conditions: human, compound only, read-out: VSMC viability (MTS), % of medium control. It counts as cell-based, human.
The target in data set [6] is T7, Cholinesterase, Acetyl, ACES (Homo sapiens, UniProt P22303).
T7 construct: purchased Eurofins Panlabs Discovery Services Taiwan, Ltd
T7 sequence (P22303 32-614): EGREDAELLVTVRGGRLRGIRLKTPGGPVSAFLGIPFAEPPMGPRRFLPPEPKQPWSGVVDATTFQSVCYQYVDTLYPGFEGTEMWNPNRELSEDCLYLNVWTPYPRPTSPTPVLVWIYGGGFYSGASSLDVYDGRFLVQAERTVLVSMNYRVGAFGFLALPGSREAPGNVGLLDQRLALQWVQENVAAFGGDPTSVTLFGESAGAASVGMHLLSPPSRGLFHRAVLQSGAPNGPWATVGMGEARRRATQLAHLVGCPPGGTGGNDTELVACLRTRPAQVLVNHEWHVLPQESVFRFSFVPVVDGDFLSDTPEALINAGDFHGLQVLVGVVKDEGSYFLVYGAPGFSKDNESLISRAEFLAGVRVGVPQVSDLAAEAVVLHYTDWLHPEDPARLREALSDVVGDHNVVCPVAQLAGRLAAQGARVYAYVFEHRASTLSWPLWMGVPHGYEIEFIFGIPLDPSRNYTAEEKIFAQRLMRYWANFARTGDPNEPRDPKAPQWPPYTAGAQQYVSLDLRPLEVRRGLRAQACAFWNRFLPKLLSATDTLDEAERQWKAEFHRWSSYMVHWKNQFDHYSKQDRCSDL
Nature of the data set: Off-target 104010. It counts as biochemical. The procedure:
as §1, §2, §3, §4, §5, §6

The next data set addresses T8, Adenosine A2A (Homo sapiens, UniProt P29274).
T8 construct: purchased Eurofins Panlabs Discovery Services Taiwan, Ltd
Nature of the data set: Off-target 200610. Type of data set: binding. The procedure: as §1, §2, §7, §6, §8, §9

Data set [7] is described as follows: PK s.c. in rats with vitamin D and warfarin-induced VC. It counts as in vivo. The conditions noted are these: Sprague-Dawley, rat, plasma, sc, 50 mg/kg, 50 mg/kg s.c.
The test system of data set [8] is Calcium Channel L-Type, Phenylalkylamine. Kind of data set: Off-target 215000. The conditions noted are these: 10 µM. Type of data set: binding, Rat. On the procedure:
as §1, §2, §3, §4, §5, §6

Data set [9] relates to TNFα release from THP-1-derived macrophages. Kind of data set: TNFα in macrophage supernatants after CPP2 and compounds. Type of data set: cell-based, human. The conditions noted are these: for TNFα concentration in macrophage supernatants: 24 h, unit not given. The procedure:
Macrophage accumulation and inflammation coincide with the initial phase of calcification. To this end, VSMCs and THP-1-derived macrophages were exposed to CPP2-supplemented medium. CPP2 prepared from human serum as described previously[61] (Supplementary Figs. 6 and 7), induced a pronounced VSMC monolayer calcification after 48 h, which was decreased by (OEG2)2-IP4 in a dose-dependent fashion, and the effect became significant at 10 µM (Fig. 3e). […] Both H2O2 (proxy for oxidative stress) and tumor necrosis factor-alpha (TNF-α) (proxy for inflammatory response) levels were assayed in the VSMC culture supernatants subsequent to CPP2 treatment with and without compounds[30]. However, no increase in H2O2 nor TNF-α compared to control could be detected in either assay. For the CPP-induced VSMC calcification assay (Fig. 3e) a roughly 10-fold higher concentration of (OEG2)2-IP4 was necessary to achieve similar activity as in the CaP-induced VSMC calcification assay (Fig. 3b). […] In the CaP assay, low inhibitor concentration may be sufficient to inhibit crystal nucleation, whereas for the CPP assay higher inhibitor concentrations may be needed to achieve sufficient particle stabilization by chemisorption of inhibitor onto CPPs. Similar results have been reported for hydrogen sulfide in the context of VC[62],[64]. […] An increase in the TNFα levels in the cell culture supernatants was not observed for (OEG2)2-IP4 with (Fig. 3h) and without (Supplementary Fig. 10) combined CPP2 treatment.
THP-1 cells were plated at a density of 200,000 cells/well in a 24-well plate, differentiated as stated above, and subsequently treated with or without CPP2 (50 μg Ca/mL) in complete medium with or without test compounds (3, 10, 30, 100 μM) for 24 h at 37 °C, 5% CO2.
Human TNF-α was assayed in cell culture supernatants using commercial multiplex immunoassay kits (U-Plex of TNF-α (custom-made multiplex plate) and Human TNF- Kit (K151QWD-1), both from MesoScaleDiscovery, Rockville, MD, USA), and corrected for total protein content using the Micro BCA^TM Protein Assay Kit.

The next data set deals with T9, Histamine H2 (Homo sapiens, UniProt P25021).
T9 construct: purchased Eurofins Panlabs Discovery Services Taiwan, Ltd
T9 sequence (P25021 whole entry): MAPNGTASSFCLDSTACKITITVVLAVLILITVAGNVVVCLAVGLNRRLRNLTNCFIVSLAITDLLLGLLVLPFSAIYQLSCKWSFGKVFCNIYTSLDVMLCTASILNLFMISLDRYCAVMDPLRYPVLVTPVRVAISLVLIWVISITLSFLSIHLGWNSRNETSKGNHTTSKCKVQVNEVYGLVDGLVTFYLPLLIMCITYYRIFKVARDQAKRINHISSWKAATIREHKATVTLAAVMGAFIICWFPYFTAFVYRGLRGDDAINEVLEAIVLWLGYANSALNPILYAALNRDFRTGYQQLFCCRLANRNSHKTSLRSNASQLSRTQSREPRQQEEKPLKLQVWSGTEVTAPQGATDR
Nature of the data set: Off-target 239710. It counts as binding. The procedure: as §1, §2, §7, §6, §8, §9

Data set [10] addresses T10, Peptidase, CTSG (Cathepsin G) (Homo sapiens, UniProt P08311).
T10 construct: purchased Eurofins Panlabs Discovery Services Taiwan, Ltd
Kind of data set: Off-target 112510. Type of data set: biochemical. The procedure: as §1, §2, §7, §6, §8, §9

Data set [11] deals with GABAA, Ro-15-1788, Hippocampus. Nature of the data set: Off-target 226630. It counts as binding, Rat. The conditions noted are these: 10 µM. The procedure:
as §1, §2, §3, §4, §5, §6

The subject of the next data set is Sodium Channel, Site 2. Kind of data set: Off-target 279510. Type of data set: binding, Rat. The conditions noted are these: 10 µM. On the procedure:
as §1, §2, §3, §4, §5, §6

Data set [12] is described as follows: Precipitation in culture medium (naked eye, microscope). The conditions noted are these: 100 µM, VSMC and macrophage assays. Type of data set: physicochemical. The procedure: Macrophage accumulation and inflammation coincide with the initial phase of calcification. To this end, VSMCs and THP-1-derived macrophages were exposed to CPP2-supplemented medium. CPP2 prepared from human serum as described previously[61] (Supplementary Figs. 6 and 7), induced a pronounced VSMC monolayer calcification after 48 h, which was decreased by (OEG2)2-IP4 in a dose-dependent fashion, and the effect became significant at 10 µM (Fig. 3e). […] Both H2O2 (proxy for oxidative stress) and tumor necrosis factor-alpha (TNF-α) (proxy for inflammatory response) levels were assayed in the VSMC culture supernatants subsequent to CPP2 treatment with and without compounds[30]. However, no increase in H2O2 nor TNF-α compared to control could be detected in either assay. For the CPP-induced VSMC calcification assay (Fig. 3e) a roughly 10-fold higher concentration of (OEG2)2-IP4 was necessary to achieve similar activity as in the CaP-induced VSMC calcification assay (Fig. 3b). […]
Occurrence of precipitation in the different treatment groups was assessed visually by the naked eye and by a microscope (CTR6000, Leica Camera AG) at ×25 magnification at 0 and 24 h (performed once in duplicate).

Several values for one entry are separate records, joined by “and”; a condition that tells them apart may be missing. Equal entries are not always repeated.

T8 sequence (P29274 whole entry): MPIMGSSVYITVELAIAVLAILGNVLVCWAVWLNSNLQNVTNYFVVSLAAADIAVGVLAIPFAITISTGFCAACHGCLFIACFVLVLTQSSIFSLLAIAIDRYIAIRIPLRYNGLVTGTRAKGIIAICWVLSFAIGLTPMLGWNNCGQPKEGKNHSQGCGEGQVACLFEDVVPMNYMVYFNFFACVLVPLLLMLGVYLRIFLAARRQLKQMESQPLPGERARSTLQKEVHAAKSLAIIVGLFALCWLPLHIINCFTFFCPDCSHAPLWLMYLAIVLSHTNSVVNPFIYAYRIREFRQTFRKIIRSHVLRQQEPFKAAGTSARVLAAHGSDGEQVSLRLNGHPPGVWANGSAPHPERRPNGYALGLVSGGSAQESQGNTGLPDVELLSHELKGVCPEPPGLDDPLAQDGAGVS
T10 sequence (P08311 21-255): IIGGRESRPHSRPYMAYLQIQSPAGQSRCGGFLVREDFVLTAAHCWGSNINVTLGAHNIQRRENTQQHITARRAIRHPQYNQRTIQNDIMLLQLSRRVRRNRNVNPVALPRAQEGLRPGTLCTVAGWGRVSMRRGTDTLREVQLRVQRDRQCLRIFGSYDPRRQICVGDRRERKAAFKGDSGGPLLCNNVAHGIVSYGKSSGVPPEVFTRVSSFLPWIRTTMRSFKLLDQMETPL
T1 sequence (P35367 whole entry): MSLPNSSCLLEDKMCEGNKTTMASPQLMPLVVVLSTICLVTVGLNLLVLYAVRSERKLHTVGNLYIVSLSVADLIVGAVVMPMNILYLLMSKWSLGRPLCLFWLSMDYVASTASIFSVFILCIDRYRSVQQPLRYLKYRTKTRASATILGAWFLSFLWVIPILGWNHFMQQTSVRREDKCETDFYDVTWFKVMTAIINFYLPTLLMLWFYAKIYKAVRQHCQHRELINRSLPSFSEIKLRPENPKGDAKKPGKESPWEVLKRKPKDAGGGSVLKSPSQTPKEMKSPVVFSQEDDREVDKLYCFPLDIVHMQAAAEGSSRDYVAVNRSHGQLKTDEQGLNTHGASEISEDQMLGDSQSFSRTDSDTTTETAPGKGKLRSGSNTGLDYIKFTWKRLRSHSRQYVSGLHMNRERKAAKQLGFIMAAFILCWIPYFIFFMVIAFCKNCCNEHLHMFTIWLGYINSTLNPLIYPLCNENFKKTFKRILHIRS

As usually defined, the % Inhibition is the drop in the measured response relative to a control, in per cent. For orientation: inhibition means the relative decrease from the control value, in per cent. What is called viability is a read-out of living cells in per cent, often relative to untreated cells. What is called AUC(0-inf) is the area under the concentration-time curve extrapolated to infinity. Lower therefore signals low exposure. One may read the CL/F as the apparent clearance, not corrected for the fraction that reaches the circulation. One may read the Cmax as the maximum level reached in the sampled fluid or tissue. In general, half-life refers to the time in which the quantity being followed falls by half. Take `COCCOCCO[C@@H]1[C@@H](OP(=O)(O)O)[C@H](OCCOCCOC)[C@@H](OP(=O)(O)O)[C@@H](OP(=O)(O)O)[C@H]1OP(=O)(O)O` [(OEG2)2-IP4, 4,6-Di-O-(methoxy-diethyleneglycol)-myo-inositol-1,2,3,5-tetrakis(phosphate)]: the “% Inhibition” value was -19% in data set [1]; -14% in the data set on Transporter, Adenosine; 1% in data set [4]; -4% in data set [8]; 5% in [11]; -1% in the data set with Sodium Channel, Site 2. Besides, the inhibition at 10 µM against Histamine H1 was 4%; against hERG potassium channel it was 11%; on Chemokine CXCR2 (IL-8RB) it was 6%; in data set [2], 2%; in [3], -23%; at Dopamine D1, -1%. In addition, the inhibition at 10 µM in data set [6] was 5%; against Adenosine A2A it was 5%; on Histamine H2, -6%; in data set [10] it was 23%. The viability at 1 µM in [5] (1 µM) was determined as 108%. Moreover, the viability at 10 µM in data set [5] (10 µM) was found to be 106%. For the same compound, in [7] (Healthy), the AUC(0-inf) is 101 µM·h. Also, in data set [7] (Healthy), the CL/F came out at 11 ± 1 mL/min/kg. The concentration in data set [7] (Healthy) peaked (Cmax) at 49 ± 7 µM. In addition, in data set [7] (Healthy (before induction of calcification)), the half-life was found to be 3.92 ± 0.267 h. The AUC(0-t) in [7] (Healthy, read-out: AUC0-1440 (converted)) was 101 µM·h. For the same compound, the MRT last in data set [7] (Healthy, read-out: MRT0-1440 (converted)) is 2.27 h. Further, the “TNFα concentration in macrophage supernatants” value in [9] (3 µM + CPP2 50 µg Ca/mL, replicates Fig. 3h) was 169.13 and 90.77 and 60.49; in [9] (10 µM + CPP2 50 µg Ca/mL) it was 111.79 and 105.92 and 63.72; in data set [9] (30 µM + CPP2 50 µg Ca/mL), 131.34 and 98.11 and 72.68. The “increase in TNFα levels in supernatants” value in data set [9] (with combined CPP2 treatment) is listed as “not observed”.

As to `O=P(O)(O)O[C@H]1[C@H](OP(=O)(O)O)[C@@H](OP(=O)(O)O)[C@H](OP(=O)(O)O)[C@@H](OP(=O)(O)O)[C@H]1OP(=O)(O)O` [IP6, myo-Inositol hexakisphosphate], the “precipitation in culture medium” value in data set [12] is on record as “precipitation in culture medium occurred”.

For the origin of these results see publication PMC7002685, “Inhibition of vascular calcification by inositol phosphates derivatized with ethylene glycol oligomers” (Nature Communications, 2020).
